The values below come from patent US4963553A, “4-[(substituted) alkylcarbonyl]-4,5-dihydro- and -4,5,6,7-tetrahydro-7-[(substituted)phenyl]pyrazolo[1,5-a]pyrimidines” (American Cyanamid Co., priority 1988, dated 1990).

Structures can show the parent of a compound that is named as a salt.

The first experiment relates to mice (hypoxic environment). Put plainly: Hypoxic survival test. Type of experiment: in vivo, mouse (Royal Hart). To be noted: 100 mg/kg, intraperitoneal, 10% oxygen, 5 minutes. The procedure:
The hypoxic survival test is a useful in vivo test for measuring the effectiveness of central nervous system-acting drugs in enhancing survival in an hypoxic environment relative to the known parasympathomimetic agent physostigmine.
Drugs are tested by intraperitoneal injection of groups of mice 30 minutes prior to placing them in an hypoxic environment and measuring survival. The rationale of this test is that drugs which enhance survival under hypoxic conditions without concomitant depression or sedative side effects, do so by enhancing brain metabolism, i.e., by improving energy supply relative to demand and so preserving normal brain function under conditions of reduced energy metabolism. Considering the dependence of the brain on a constant supply of energy, drugs which have this property may have many far-reaching therapeutic indications, including aiding recovery from stroke and closed head injury and reducing the deleterious effects of age-related central nervous system deficits.
In the hypoxic survival test, groups of 20 Royal Hart mice (6 weeks of age) were injected intraperitoneally with a test compound in saline at various doses ranging from 1 to 200 mg/kg, 30 minutes prior to placing them in an hypoxic mixture (10% oxygen, 90% […]) and measuring survival after 5 minutes.
A control group of 20 mice was injected intraperitoneally with saline (0.01 ml/g of body weight) and processed as described above.
Another group of 20 mice was injected intraperitoneally with 0.125 mg/kg of physostigmine in saline and processed as described above.
Take `N#Cc1cnn2c1N(C(=O)CN1CCN(CCc3ccccc3)CC1)CC=C2c1cccc(C(F)(F)F)c1` [4,5-Dihydro-4-[[4-(2-phenylethyl)-1-piperazinyl]acetyl]-7-[3-trifluoromethyl)phenyl]pyrazolo[1,5-a]pyrimidine-3-carbonitrile]: the “% Survivors” value worked out at 90%.

On to `CC1C=C(c2cccc(C(F)(F)F)c2)n2ncc(C#N)c2N1C(=O)CN1CCN(Cc2ccccc2)CC1` (stereo not shown) [Example 72, 4,5-Dihydro-5-methyl-4-[[4-(phenylmethyl)-1-piperazinyl]acetyl]-7-[3-(trifluoromethyl)phenyl]pyrazolo[1,5-a]pyrimidine-3-carbonitrile], for which the “% Survivors” value was 25%.

`N#Cc1cnn2c1N(C(=O)CN1CCN(Cc3cccc(C(F)(F)F)c3)CC1)CC=C2c1cccc(C(F)(F)F)c1` [Example 128, 4,5-Dihydro-4-[[4-[(3-trifluoromethylphenyl)methyl]-1-piperazinyl]acetyl]-7-[3-(trifluoromethyl)phenyl]pyrazolo[1,5-a]pyrimidine-3-carbonitrile]: the “% Survivors” value is on record as 40%.

Still in this experiment, the particulars now being: Mus musculus, ip, 5 min, 10 mg/kg, intraperitoneal, 10% oxygen, 5 minutes; read-out: % Survivors.
Consider `N#Cc1cnn2c1N(C(=O)CN1CCN(Cc3c(Cl)cccc3Cl)CC1)CCC2c1cccc(C(F)(F)F)c1` (stereo not shown) [Example 54, 4-[[4-[(2,6-Dichlorophenyl)methyl]-1-piperazinyl]acetyl]-4,5,6,7-tetrahydro-7-[3-(trifluoromethyl)phenyl]pyrazolo[1,5-a]pyrimidine-3-carbonitrile], for which the responders at 10 mg/kg was found to be 25%.

As to `N#Cc1cnn2c1N(C(=O)CN1CCN(Cc3ccccc3)CC1)CC=C2c1ccc(Cl)cc1` [Example 58, 7-(4-Chlorophenyl)-4,5-dihydro-4-[[4-(phenylmethyl)-1-piperazinyl]acetyl]pyrazolo[1,5-a]pyrimidine-3-carbonitrile], the responders at 10 mg/kg is 50%.

For the molecule `N#Cc1cnn2c1N(C(=O)CN1CCN(Cc3ccccc3C(F)(F)F)CC1)CC=C2c1ccc(Cl)cc1` [Example 59, 7-(4-Chlorophenyl)-4,5-dihydro-4-[[4-[[2-(trifluoromethyl)phenyl]methyl]-1-piperazinyl]acetyl]pyrazolo[1,5-a]pyrimidine-3-carbonitrile], the responders at 10 mg/kg worked out at 55%.

For `NC(=O)c1cnn2c1N(C(=O)CN1CCN(Cc3ccccc3)CC1)CC=C2c1cccc(C(F)(F)F)c1` [Example 75, 4,5-Dihydro-4-[[4-(phenylmethyl)-1-piperazinyl]acetyl]-7-[3-(trifluoromethyl)phenyl]pyrazolo[1,5-a]pyrimidine-3-carboxamide], the responders at 10 mg/kg was 15%.

In the case of `N#Cc1cnn2c1N(C(=O)CN1CCN(C3CCC3)CC1)CC=C2c1cccc(C(F)(F)F)c1` [Example 91, 4-[(4-Cyclobutyl-1-piperazinyl)acetyl]-4,5-dihydro-7-[3-(trifluoromethyl)phenyl]pyrazolo[1,5-a]pyrimidine-3-carbonitrile, dihydrochloride], the responders at 10 mg/kg is 55%.

The experiment is the same for the next values; noted with them: Mus musculus, ip, 5 min, 50 mg/kg, intraperitoneal, 10% oxygen, 5 minutes; read-out: % Survivors.
As to `CC1=C(c2cccc(Cl)c2)n2ncc(C#N)c2N(C(=O)CN2CCN(Cc3cccc(Cl)c3)CC2)C1` [Example 131, 7-(3-Chloroohenyl)-4-[[4-[(3-Chlorophenyl)methyl-1-piperazinyl]acetyl]4,5-dihydro-6-methylpyrazolo[1,5-a]pyrimidine-3-carbonitrile, dihydrochloride], the responders at 50 mg/kg turned out to be 73%.

The same experiment, now with this note: Mus musculus, ip, 5 min, 100 mg/kg, intraperitoneal, 10% oxygen, 5 minutes; read-out: % Survivors.
Take `N#Cc1cnn2c1N(C(=O)CN1CCN(c3ccccc3)CC1)CC=C2c1cc(Cl)ccc1Cl` [7-(2,5-Dichlorophenyl)-4,5-dihydro-4-[(4-phenyl-1-piperazinyl)acetyl]pyrazolo[1,5-a]pyrimidine-3-carbonitrile]: the responders at 100 mg/kg was 70%.

As for `CC1=C(c2cccc(Cl)c2)n2ncc(C#N)c2N(C(=O)CN2CCN(Cc3cccc(C(F)(F)F)c3)CC2)C1` [7-(3-Chlorophenyl)-4,5-dihydro-6-methyl-4-[[4-[[3-(trifluoromethyl)phenyl]methyl]-1-piperazinyl]acetyl]pyrazolo[1,5-a]pyrimidine-3-carbonitrile, sesquihydrochloride], the responders at 100 mg/kg was found to be 35%.

In the case of `N#Cc1cnn2c1N(C(=O)CN1CCN(Cc3cccc(Cl)c3)CC1)CCC2c1cccc(C(F)(F)F)c1` (stereo not shown) [Example 53, 4-[[4-[(3-Chlorophenyl)methyl]-1-piperazinyl]acetyl]-4,5,6,7-tetrahydro-7-[3-(trifluoromethyl)phenyl]pyrazolo[1,5-a]pyrimidine-3-carbonitrile], the responders at 100 mg/kg is 15%.

As for `N#Cc1cnn2c1N(C(=O)CN1CCN(Cc3ccccc3)CC1)CC=C2c1ccc(Cl)cc1` [Example 58, 7-(4-Chlorophenyl)-4,5-dihydro-4-[[4-(phenylmethyl)-1-piperazinyl]acetyl]pyrazolo[1,5-a]pyrimidine-3-carbonitrile], the responders at 100 mg/kg turned out to be 82.5%.

Consider `N#Cc1cnn2c1N(C(=O)CN1CCN(Cc3ccccc3C(F)(F)F)CC1)CC=C2c1ccc(Cl)cc1` [Example 59, 7-(4-Chlorophenyl)-4,5-dihydro-4-[[4-[[2-(trifluoromethyl)phenyl]methyl]-1-piperazinyl]acetyl]pyrazolo[1,5-a]pyrimidine-3-carbonitrile], for which the responders at 100 mg/kg is 90%.

`N#Cc1cnn2c1N(C(=O)CN1CCN(Cc3ccccc3)CC1)CC=C2c1cc(Cl)ccc1Cl` [Example 62, 7-(2,5-Dichlorophenyl)-4,5-dihydro-4-[[4-(phenylmethyl)-1-piperazinyl]acetyl]pyrazolo[1,5-a]pyrimidine-3-carbonitrile]: the responders at 100 mg/kg was found to be 50%.

For `Cc1ccc(C)c(N2CCN(CC(=O)N3CC=C(c4cc(Cl)ccc4Cl)n4ncc(C#N)c43)CC2)c1` [Example 66, 7-(2,5-Dichlorophenyl)-4-[[4-(2,5-dimethylphenyl)-1-piperazinyl]acetyl]-4,5-dihydropyrazolo[1,5-a]pyrimidine-3-carbonitrile], the responders at 100 mg/kg is 45%.

Take `N#Cc1cnn2c1N(C(=O)CN1CCN(C(=O)c3ccccc3)CC1)CC=C2c1cccc(C(F)(F)F)c1` [Example 68, 4-[[4-Benzoyl-1-piperazinyl)acetyl]-4,5-dihydro-7-[3-(trifluoromethyl)phenyl]pyrazolo[1,5-a]pyrimidine-3-carbonitrile]: the responders at 100 mg/kg is 95%.

Turning to `O=C(CN1CCN(Cc2ccccc2)CC1)N1CC=C(c2cccc(C(F)(F)F)c2)n2ncc(Br)c21` [Example 76, 3-Bromo-4,5-dihydro-4-[[4-(phenylmethyl)-1-piperazinyl]acetyl]-7-[3-(trifluoromethyl)phenyl]pyrazolo[1,5-a]pyrimidine], the responders at 100 mg/kg was 35%.

With `N#Cc1cnn2c1N(C(=O)CN1CCN(C(c3ccc(F)cc3)c3ccc(F)cc3)CC1)CC=C2c1cccc(C(F)(F)F)c1` [Example 88, 4-[[4-[Bis(4-Fluorophenyl)methyl]-1-piperazinyl]acetyl]-4,5-dihydro-7-[3-(trifluoromethyl)phenyl]pyrazolo[1,5-a]pyrimidine-3-carbonitrile, dihydrochloride], the responders at 100 mg/kg is 55%.

Take `CC1C=C(c2cccc(C(F)(F)F)c2)n2ncc(C#N)c2N1C(=O)CN1CCN(Cc2ccccc2)CC1` (stereo not shown) [Example 95, 4,5-Dihydro-5-methyl-4-[[4-(phenylmethyl)-1-piperazinyl]acetyl]-7-[3-(trifluoromethyl)phenyl]pyrazolo[1,5-a]pyrimidine-3-carbonitrile, dihydrochloride]: the responders at 100 mg/kg is 43%.

Turning to `N#Cc1cnn2c1N(C(=O)CN1CCN(C(=O)Nc3ccc(Cl)c(C(F)(F)F)c3)CC1)CC=C2c1cccc(C(F)(F)F)c1` [Example 106, N-[4-Chloro-3-(trifluoromethyl)phenyl]-4-[2-[3-cyano-7-[3-(trifluoromethyl)phenyl)pyrazolo[1.5-a]pyrimidin-4(5H)-yl]-2-oxoethyl]-1-piperazinecarboxamide], the responders at 100 mg/kg amounted to 15%.

On to `N#Cc1cnn2c1N(C(=O)CN1CCN(C(=O)Nc3ccc(F)cc3F)CC1)CC=C2c1cccc(C(F)(F)F)c1` [Example 107], for which the responders at 100 mg/kg turned out to be 20%.

Consider `CC1=C(c2cccc(C(F)(F)F)c2)n2ncc(C#N)c2N(C(=O)CN2CCN(Cc3ccccc3)CC2)C1` [Example 111, 4,5-Dihydro-6-methyl-4-[[4-(phenylmethyl)-1-piperazinyl]acetyl]-7-[3-(trifluoromethyl)phenyl]pyrazolo[1.5-a]pyrimidine-3-carbonitrile. dihydrochloride], for which the responders at 100 mg/kg turned out to be 73%.

`CC1=C(c2cccc(Cl)c2)n2ncc(C#N)c2N(C(=O)CN2CCN(Cc3ccccc3)CC2)C1` [Example 113, 7-(3-Chlorophenyl)-4.5-dihydro-6-methyl-4-[[4-(phenylmethyl)piperazinyl]acetyl]pyrazolo[1,5-a]pyrimidine-3-carbonitrile, dihydrochloride]: the responders at 100 mg/kg was 30%.

On to `CC1=C(c2ccc(Cl)cc2)n2ncc(C#N)c2N(C(=O)CN2CCN(Cc3ccccc3)CC2)C1` [Example 114, 7-(4-Chlorophenyl)-4.5-dihydro-6-methyl-4[[4-(phenylmethyl)piperazinyllacetyllpyrazolo[1,5-a]pyrimidine-3-carbonitrile, dihydrochloride], for which the responders at 100 mg/kg was 25%.

With `CC1=C(c2cccc(Cl)c2)n2ncc(C#N)c2N(C(=O)CN2CCN(Cc3cccc(Cl)c3)CC2)C1` [Example 131, 7-(3-Chloroohenyl)-4-[[4-[(3-Chlorophenyl)methyl-1-piperazinyl]acetyl]4,5-dihydro-6-methylpyrazolo[1,5-a]pyrimidine-3-carbonitrile, dihydrochloride], the responders at 100 mg/kg is 77%.

The same experiment, now with this note: Mus musculus, ip, 5 min, 200 mg/kg, intraperitoneal, 10% oxygen, 5 minutes; read-out: % Survivors.
In the case of `Cc1ccc(C)c(N2CCN(CC(=O)N3CC=C(c4cc(Cl)ccc4Cl)n4ncc(C#N)c43)CC2)c1` [Example 66, 7-(2,5-Dichlorophenyl)-4-[[4-(2,5-dimethylphenyl)-1-piperazinyl]acetyl]-4,5-dihydropyrazolo[1,5-a]pyrimidine-3-carbonitrile], the responders at 200 mg/kg is 80%.

Consider `CC1=C(c2cccc(Cl)c2)n2ncc(C#N)c2N(C(=O)CN2CCN(Cc3cccc(C(F)(F)F)c3)CC2)C1` [Example 127, 7-(3-Chlorophenyl)-4,5-dihydro-6-methyl-4-[[4-[[3-(trifluoromethyl)phenyl]methyl]-1-piperazinyl]acetyl]pyrazolo[1,5-a]pyrimidine-3-carbonitrile], for which the responders at 200 mg/kg is 73%.
